Measurements from ChEMBL document CHEMBL1144092, “5-Oxonoraporphines from Mitrephora cf. maingayi” (1999).
In brackets after ≈: the same amount, converted by molar mass. Activity calls are given as the source filed them. The rule behind the calls is not given here.

What was measured:
Aedes aegypti = assay: Larvicidal activity against Aedes aegypti larvae; format: functional
P388 = assay: Cytotoxicity against mouse P388 cells; format: functional; settings: P388, read-out: ED50

| SMILES | LC50 (Aedes aegypti) [µg/mL] | EC50 (P388) [µg/mL] | Activity (Aedes aegypti) |
| --- | --- | --- | --- |
| COc1c(OC)c(OC)c2c3c(cc4ccccc42)NC(=O)C(=O)c13 [OUREGIDIONE] | 10000 (≈ 29.6 mM) | – | – |
| COc1c2c3c(c(OC)c1OC)-c1ccccc1C[C@H]3NC(=O)C2 | – | > 30 | inactive |
| COc1c(O)c2c3c(c1OC)-c1ccccc1C[C@H]3NC(=O)C2 | – | > 30 | inactive |
